Experimental data from US20130065227A1, “METHODS OF INCREASING MACROPINOCYTOSIS IN CANCER CELLS” (priority 2010, published 2013).

Tests used:
DU145 cells [1] = experiment: Confocal microscopy localization and co-localization; assay type: cell-based
Experimental: (§1) FIG. 3 are photographs showing that AS1411 co-localizes with the macropinocytic marker, dextran. DU145 or Hs27 cells were incubated with the reagents indicated, then washed and fixed. Nuclei were stained with DAPI (blue). The distribution of markers was visualized by confocal microscopy and fluorescent images were overlaid to determine co-localization as indicated by the yellow color. (Panel A) 10 μM AS1411 labeled with Alexa Fluor 488 (green) and 0.2 mg/ml dextran-10K, macropinocytic marker, labeled with Alexa Fluor 594 (red) for 2 h at 37° C. (Panel B) Experiments similar to those in Panel A but using FL-CRO in place of FL-AS1411. (Panel C) Cells incubated with 5 μg/ml transferrin labeled with Alexa Fluor 488 (green) and 0.2 mg/ml dextran-10K labeled with Alexa Fluor 594 (red) for 30 min at 37° C. (Panel D) DU145 cells incubated with 5 μg/ml transferrin labeled with Alexa Fluor 594 (red) and 10 μM AS1411 labeled with Alexa Fluor 488 (green) for 30 min at 37° C. Scale bars, 10 μm.
Cells (4×10^4) in fresh supplemented culture medium were plated on 18 mm diameter glass cover slips for 18 h. The media was removed and replaced with serum-free medium containing 10 μM oligodeoxynucleotide, dextran-10K, or transferrin and incubated as describe in the Description of the Drawings. After incubation, cells were washed 3 times with ice-cold PBS, fixed in 4% paraformaldehyde in PBS for 30 min at room temperature, and washed three times with PBS. After washing, the cover slips were mounted on glass slides with ProLong Antifade (Molecular Probes) according to the manufacturer's directions to inhibit photobleaching. Immunofluorescence was documented with an LSM 510 inverted confocal laser-scanning microscope (Carl Zeiss, Oberkochen, Germany) equipped with an Omnichrome argon-krypton laser. Images were obtained with a Zeiss Plan-Apo 63× oil immersion objective (1.4 NA).

[2] = tested on: cancer cells (DU145, HeLa, MDA-MB-231) and non-malignant Hs27 skin fibroblasts; experiment: Temperature-dependence of oligonucleotide uptake by flow cytometry; assay type: cell-based; settings: 10 μM, 37° C. or 4° C. for 2 h, all cell types
Experimental: FIG. 1 are graphs showing that AS1411 cell internalization is an active process. Cells were plated 18 h before uptake analysis. After incubation as described, cells were washed with ice-cold PBS, incubated with 1 μg/ml 7-AAD, harvested and resuspended in 1% paraformaldehyde containing 2 μg/ml actinomycin D, then analyzed by flow cytometry. (Panel A) DU145 cells were incubated at 37° C. with fresh complete DMEM medium containing 10 μM FL-AS1411 (black line) or 10 μM FL-CRO (gray line) for the time indicated. (Panel B) DU145 cells were incubated for 2 h at 37° C. in complete or serum-free DMEM medium containing 10 μM FL-AS1411, or 10 μM FL-CRO, or no oligonucleotide. (Panel C) Various cell lines were incubated with 10 μM FL-AS1411 (black outline histogram), 10 μM FL-CRO (gray outline histogram) or without DNA (solid gray histogram) at 37° C. or 4° C. for 2 h. All experiments were repeated at least three times. Data are mean of three independent samples; bars, SE; *(p<0.05). […]
To determine whether AS1411 uptake occurs through an active uptake process, the temperature-dependence of AS1411 uptake in cancer cells (DU145, HeLa, MDA-MB-231) and non-malignant Hs27 skin fibroblasts was evaluated using flow cytometry. […]

Hs27 cells [3] = experiment: Confocal microscopy localization and co-localization; assay type: cell-based, human; settings: 10 μM, 0.2 mg/ml dextran-10K, 2 h at 37° C.
Experimental: as §1
Cells (4×10^4) in fresh supplemented culture medium were plated on 18 mm diameter glass cover slips for 18 h. The media was removed and replaced with serum-free medium containing 10 μM oligodeoxynucleotide, dextran-10K, or transferrin and incubated as describe in the Description of the Drawings. […]

DU145 cells [4] = experiment: Uptake of fluorophore-labeled oligonucleotides by flow cytometry; assay type: cell-based
Experimental: (§2) FIG. 1 are graphs showing that AS1411 cell internalization is an active process. Cells were plated 18 h before uptake analysis. After incubation as described, cells were washed with ice-cold PBS, incubated with 1 μg/ml 7-AAD, harvested and resuspended in 1% paraformaldehyde containing 2 μg/ml actinomycin D, then analyzed by flow cytometry. (Panel A) DU145 cells were incubated at 37° C. with fresh complete DMEM medium containing 10 μM FL-AS1411 (black line) or 10 μM FL-CRO (gray line) for the time indicated. (Panel B) DU145 cells were incubated for 2 h at 37° C. in complete or serum-free DMEM medium containing 10 μM FL-AS1411, or 10 μM FL-CRO, or no oligonucleotide. (Panel C) Various cell lines were incubated with 10 μM FL-AS1411 (black outline histogram), 10 μM FL-CRO (gray outline histogram) or without DNA (solid gray histogram) at 37° C. or 4° C. for 2 h. All experiments were repeated at least three times. Data are mean of three independent samples; bars, SE; *(p<0.05).
(§3) FIG. 2 are graphs showing that AS1411 is internalized by different endocytic mechanisms in DU145 cancer cells and in non-malignant Hs27 cells. DU145 or Hs27 cells were plated 18 h before uptake analysis. Cells were pre-treated as described with inhibitor (gray histogram) or the corresponding vehicle control (black histogram) before addition of 10 μM FL-AS1411 and incubation at 37° C. for 2 h. After incubation, cells were harvested and analyzed by flow cytometry. Pre-treatment conditions were at 37° C. with: (Panel A) 5 μM Cytochalasin D for 30 min; (Panel B) 80 μM Dynasore for 30 min; or (Panel C) 3 mM amiloride for 1 h. All experiments were repeated at least three times and representative data are shown. Solid gray histograms represent background autofluorescence of unstained cells.
DU145 cells were transfected for 48 h without siRNA (mock, M), or with 30 nM of one of three different nucleolin siRNAs (NCL1, NCL2, NCL3) or a control siRNA (scramble, S), or contransfected with 10 nM of each nucleolin siRNAs (mix). (Panel A) Cells were lysed and total cell lyses were analyzed by Western blotting using the antibodies shown. (Panel B) Cell-surface proteins from intact transfected DU145 cells were labeled covalently with membrane-impermeable biotinylating agent. Cells were lysed, then biotinylated plasma membrane proteins were captured with streptavidin-agarose beads and analyzed by blotting with anti-nucleolin antibody (upper panel). After stripping, the membrane was reprobed with antibodies for a plasma membrane marker (anti-pan Cadherin) and a nuclear marker (anti-histone 3) to confirm the fractionation. Total lysate (Lys) was used as control. (Panel C) The medium of transfected cells was replaced by fresh complete DMEM medium containing no oligonucleotide (gray dashed histogram) or 10 μM FL-CRO (gray solid line histogram) or 10 μM FL-AS1411 (black solid line histogram) and incubated at 37° C. for 2 h. After incubation, cells were harvested and analyzed by flow cytometry.
DU145 cells were plated 18 hr before uptake analysis. Cell medium was changed with fresh complete DMEM medium containing different concentrations of FL-AS1411 (black line) or FL-CRO (gray line), and incubated at 37° C. for 2 hrs. After incubation, cells were harvested and analyzed by flow cytometry.
FIG. 9 are graphs showing the effects of inhibitors on various endocytic pathways. DU145 or Hs27 cells were plated 18 hr before uptake analysis. (Panel A) DU145 cells were pre-treated with dynamin inhibitor, […] Dynasore (black histogram) or DMSO (gray histogram) for 30 min at 37° C. After pre-treatment, cells were treated with […] transferrin conjugated with Alexa Fluor 488 for 30 min at 37° C. (Panel B) DU145 and Hs27 cells were pre-treated with 3 mM amiloride (black histogram) or vehicle (serum-free medium, gray histogram) for 1 h at 37° C. After pre-treatment, FL-CRO was added at a concentration of 10 μM and incubated at 37° C. for 2 h. After incubation, cells were harvested and analyzed by FACS. […]

DU145 cells [5] = experiment: Transferrin uptake (clathrin-dependent endocytosis) by flow cytometry; assay type: cell-based; parameters: dose or concentration left out as unconfirmed; settings: for 30 min, transferrin-Alexa Fluor 488 for 30 min
Experimental: (§4) FIG. 9 are graphs showing the effects of inhibitors on various endocytic pathways. DU145 or Hs27 cells were plated 18 hr before uptake analysis. (Panel A) DU145 cells were pre-treated with dynamin inhibitor, […] Dynasore (black histogram) or DMSO (gray histogram) for 30 min at 37° C. After pre-treatment, cells were treated with […] transferrin conjugated with Alexa Fluor 488 for 30 min at 37° C. (Panel B) DU145 and Hs27 cells were pre-treated with 3 mM amiloride (black histogram) or vehicle (serum-free medium, gray histogram) for 1 h at 37° C. After pre-treatment, FL-CRO was added at a concentration of 10 μM and incubated at 37° C. for 2 h. After incubation, cells were harvested and analyzed by FACS. Gray solid histogram represents unstained cells.
To confirm that uptake of AS1411 occurs by endocytosis, the involvement of the actin cytoskeleton, which has been implicated in regulating endocytic pathways, was evaluated. To this end, DU145 and Hs27 cells were pre-treated with an actin polymerization inhibitor. 5 μM cytochalasin D, and assessed for FL-AS1411 uptake by flow cytometry. […]

Hs27 cells [6] = experiment: Uptake of fluorophore-labeled oligonucleotides by flow cytometry; assay type: cell-based, human
Experimental: as §2, §3, §4
To analyze uptake of the oligodeoxynucleotides or dextran-10K (macropinocytic marker) by flow cytometry, 2×10^5 cells in fresh supplemented culture medium (2.5 ml) were plated into 6-well plates for 18 h. […]

DU145 = experiment: Uptake of AS1411 by macropinocytosis (MP); assay type: cell-based; settings: 3 mM amiloride for 1 h, then 10 μM FL-AS1411 2 h
Experimental: as §3
To analyze uptake of the oligodeoxynucleotides or dextran-10K (macropinocytic marker) by flow cytometry, 2×10^5 cells in fresh supplemented culture medium (2.5 ml) were plated into 6-well plates for 18 h. After complete adhesion, the cells were incubated with 5′-FAM tagged oligodeoxynucleotides or Alexa Fluor 488 tagged dextran-10K and incubated as indicated in the Description of the Drawings. Cells were washed once with ice-cold PBS, incubated with 1 μg/ml 7-amino-actinomycin D (7-AAD) for 5 min on ice or 1 μg/ml propidium iodide (PI), and washed twice with ice-cold PBS. […]

MDA-MB-231 = experiment: Uptake of AS1411 by macropinocytosis (MP); assay type: cell-based; settings: amiloride treatment, MDA-MB-231 cells
Source text: (§5) There was little effect of amiloride treatment on uptake of FL-CRO in either DU145 cancer cells or non-malignant Hs27 cells (FIG. 9B). […] These studies also confirmed the previous results that there was higher overall uptake of FL-AS1411 in Hs27 cells than in DU145 cells.
(§6) It has recently been discovered that AS1411 can stimulate macropinocytosis (MP) in cancer cells and this finding was verified by several different methods and in multiple cancer cell lines (Table 1).

MCF7 = experiment: Uptake of AS1411 by macropinocytosis (MP); assay type: cell-based; settings: amiloride treatment, MCF7 cells
Source text: as §5, §6

[7] = 10 μM, 37° C., complete DMEM medium
[8] = 80 μM dynasore, then 10 μM FL-AS1411 2 h
[9] = 3 mM amiloride for 1 h, then 10 μM FL-CRO 2 h

5′-Fluor-d(TTTGGTGGTGGTGGTTGTGGTGGTGGTGG) [FL-AS1411]
co-localization with the macropinocytic marker, dextran (DU145 cells [1]; 10 μM, 0.2 mg/ml dextran-10K, 2 h at 37° C.): strongly co-localized | subcellular localization (DU145 cells [1]; confocal microscopy, cancer and non-malignant cells): localized in confined structures in the cytoplasm | temperature dependence of uptake [2]: strong temperature dependence | co-localization with the macropinocytic marker, dextran (Hs27 cells [3]): not in Hs27 cells | earliest time at which uptake was detected (DU145 cells [4]; [7]): 5 min | time after which uptake is decreasing (DU145 cells [4]; [7]): > 8 h | serum dependence of uptake (DU145 cells [4]; 10 μM, 2 h at 37° C., complete or serum-free DMEM medium): independent of the presence of serum

O=C(N/N=C/c1ccc(O)c(O)c1)c1cc2ccccc2cc1O [dynasore]
effect of pre-treatment on uptake of transferrin (DU145 cells [5]): inhibited | effect of pre-treatment on FL-AS1411 uptake (DU145 cells [4]; [8]): slightly increased the uptake of FL-AS1411 | effect of pre-treatment on FL-AS1411 uptake (Hs27 cells [6]; [8]): decreased the uptake of AS1411

N=C(N)NC(=O)c1nc(Cl)c(N)nc1N [amiloride, reference compound]
effect of treatment on uptake of FL-CRO (DU145 cells [4]; [9]): little effect | effect of pre-treatment on FL-AS1411 uptake (DU145): reduction in FL-AS1411 uptake | effect of treatment on AS1411 uptake (MDA-MB-231): affected the AS1411 uptake | effect of treatment on AS1411 uptake (MCF7): affected the AS1411 uptake | effect of treatment on uptake of FL-CRO (Hs27 cells [6]; [9]): little effect
